The structures appear in SMILES notation.

Broadly, the melting point is the temperature of the solid-liquid transition. Regarding `CC(C)Cc1nnc2n1-c1ccc(Br)cc1C(c1ccccc1)=NC2`, the melting point fell in the range of 93 to 95 °C.

`CN(C)Cc1nnc(CO)n1-c1ccc(Cl)cc1C(=O)c1ccccc1` came in with a melting point of 138 to 141 °C. `O=c1nc(Nc2ccc(I)cc2)sc2ncccc12` yielded a melting point of 263 to 264 °C. The figure for `CC(=O)SCC(Cc1ccccc1)C(=O)Nc1cc2ccccc2cc1C(=O)O` (configuration not stated) is 138 to 141 °C. The figure for `COC(=O)c1cc2c([N+](=O)[O-])csc2nc1C1=NC(C)(C(C)C)C(=O)N1` (configuration not stated) is 201 to 202 °C; for `O=C(Nc1cccc(-c2ccnc3c(C(=O)c4cccs4)cnn23)c1)c1ccc(Cl)cc1Cl` it is 132 to 134 °C. With `CC(C)(C)OC(=O)N1CCN(CCOC(N)=O)CC1` the figure was 135 to 136 °C; with `NCC1CCCN(c2ncc3ncnc(Nc4ccc(F)c(Cl)c4)c3n2)C1` (configuration not stated), 132 to 137 °C.

Turning to `O=C(O)[C@H]1CCn2c(cc3ccccc32)C1`, the melting point is 244 to 246 °C. In the case of `COc1ccc(S(=O)(=O)N[C@@H](C(=O)OCc2ccccc2)C(C)C)cc1`, the melting point fell in the range of 92 to 94 °C. With `Clc1ccc2c(C3CCN(CCCCC4Cc5ccccc5C4)CC3)c[nH]c2c1` the figure was 139 to 140 °C; with `CC=CCOc1ccc(C)c2c1C(=O)CC2`, 87.5 to 92 °C; with `COc1cc(COc2cc(Cn3cncn3)n(-c3ccccc3)n2)ccc1OCc1nc(-c2ccco2)oc1C`, 95 to 96 °C. The figure for `COC(=O)CCC#Cc1cc(Cl)ccc1NS(=O)(=O)c1ccc2c(c1)CCN2C(C)=O` is 154 °C; for `CCOC(=O)C(Cc1c[nH]c2c(Cl)cccc12)(NC=O)C(=O)OCC` it is 159 to 162 °C. The compound `O=[N+]([O-])c1cc(F)c(Cl)c(Br)c1Cl` registered a melting point of 51 to 53.5 °C. In turn, `O=c1c(Cc2ccncc2)c(-c2ccc(Br)cc2)[nH]c2ccccc12` came in with a melting point of 232 to 234 °C. With `N#CCc1cn(-c2ccccc2)nc1OCc1ccccc1` the figure was 102 to 103 °C; with `CCOC(=O)c1cc2cc(OCCCS(C)(=O)=O)cc(NS(=O)(=O)c3ccccn3)c2[nH]1`, 194 to 195 °C. Compound `OCCN(CCO)CCCNc1nc2cc(Cl)c(Cl)cc2nc1-c1ccccn1` returned a melting point of 88 to 90 °C. In the case of `COc1cc(-c2cnc3[nH]cc(C(=O)CC(C)C)c3n2)cc(OC)c1OC`, the melting point was 210 to 211 °C.

Regarding `CNC(=O)c1[nH]c(=O)[nH]c1C`, the melting point was greater than 300 °C. With `C#CCCOc1cc(NC(=O)CC(CC(=O)O)C(F)(F)F)c(F)cc1Cl` (configuration not stated) the figure was 136 to 137 °C. The figure for `CCN(CC)CCCNc1ccc(-c2ccnc(Nc3cc(OC)c(OC)c(OC)c3)n2)cn1` is 67 °C. `Cc1cccc(-c2oc3c(C(=O)NCCCN4CCCCC4)cccc3c(=O)c2C)c1` came in with a melting point of 112 to 114 °C. `CCC1CC(=O)c2c(NC(=O)C(=O)O)ccc(C)c21` (configuration not stated): the melting point fell in the range of 176 to 177 °C. Regarding `CCn1c(C)c(C2(c3c(-c4ccccc4)c(-c4ccccc4)c4ccccn34)OC(=O)c3cccnc32)c2ccccc21` (configuration not stated), the melting point lay in the range of 206 to 208 °C. The figure for `CCOP(=O)(OCC)c1cc2cc([N+](=O)[O-])c(Cl)cc2[nH]c1=O` is 258 to 262 °C; for `O=S(=O)(On1nnc2ccccc21)c1cccnc1` it is 98 °C.

The compound `Cc1oncc1C(=O)N1CCN(c2ccc(NC(=O)c3cnn(-c4ccc(F)cc4)c3C)cc2C#N)CC1` displayed a melting point of 208 °C. As to `CC(C)Oc1ccc2c(c1)N(CCCN1CCC(CCO)CC1)c1cccc(S(C)(=O)=O)c1S2`, the melting point was 50 °C. With `c1ccc2c(CN3CCN(c4ccc5c(c4)OCO5)CC3)n[nH]c2c1` the figure was 149 to 150 °C; with `FC(F)(F)c1cc(-c2cc3ccccc3o2)c2cccc(C(F)(F)F)c2n1`, 129 to 130 °C; with `CC1(COc2ccc(Cc3nnn[nH]3)cc2)CCCCC1O` (configuration not stated), 103 to 108 °C. The figure for `CCCc1c2c(c3oc(C(=O)O)cc(=O)c3c1O)CCCC2` is 226 to 227 °C. The compound `CC1=C(c2ccccc2)C(=O)N(C(C)(C)C(O)c2cc(F)cc(F)c2)CO1` (configuration not stated) gave a melting point of 87.6 to 89 °C. With `Cc1cc(C)c(C2=C(OC(=O)C(C)(C)C)CN(C)C2=O)c(C)c1` the figure was 75 °C; with `O=[N+]([O-])c1cccc(/C=C/c2nc(C3CCCCC3)cs2)c1`, 102 to 104 °C; with `Cn1ncc2c1-c1c(SC(C)(C)C)sc(C(N)=O)c1CC2`, 146 to 147 °C. The figure for `FC(F)(F)c1cc(-c2ccc(Br)cc2)nc2c(-c3ccncc3)cnn12` is 289 °C; for `CCCN(CCC)S(=O)(=O)c1cc(C2=CCC(=O)O2)ccc1Cl` it is 118 to 121 °C; for `COc1ccc2c(c1)C1=C(SCC3(CCN(C(=O)c4cccc(Cl)c4)CC3)O1)C(=O)C2=O` it is 125 to 127 °C. With `C=CCN(C)CCNc1ccnc2cc(Cl)ccc12` the figure was 91 to 93 °C; with `CC(=O)NNC(=O)c1ccccc1`, 172 to 174 °C; with `CCOc1ccc2c(c1)n(C1CCCCC1)c(=O)n2Cc1ccc(NC(=O)N(C)C)cc1OC`, 250 °C. Compound `CCCCCOc1cc2c(cc1C(=O)Oc1ccc(C(=O)O)cn1)C(C)(C)CCC2(C)C` returned a melting point of 132 to 133 °C.

As to `Cc1c(C)c2c(c(C)c1O)CCC(C)(C(=S)N1CCN(c3ccc(Cl)cc3)CC1)O2` (configuration not stated), the melting point was in the range of 154 to 155 °C. The figure for `C[C@H]1[C@@H](C(C)(C)O)CCN1c1ccc(C#N)c(Cl)c1F` is 125 to 126 °C; for `O=C(CCc1c[nH]c2ccccc12)NCC1CNc2ccccc2O1` (configuration not stated) it is 145 to 146 °C.

Take `COc1ccc(S(=O)(=O)Nc2cc(C)c(S(=O)(=O)C[N+](=O)[O-])c(C)c2)cc1`: the melting point lay within 141 to 142 °C. Compound `CCOC(=O)C1=C(C)NC(c2cscn2)=NC1c1cccc(OC)c1` (configuration not stated) gave a melting point of 140 to 142 °C. Regarding `CC(C)COC(=O)Oc1c(S(N)(=O)=O)sc2ccccc12`, the melting point lay in the range of 129 to 130 °C.

`COc1cn(-c2ccc(N3CCC(F)(F)CC3)cc2F)nc(-c2ccnn2-c2ccccc2)c1=O` yielded a melting point of 192 to 194 °C. The figure for `Cc1c(-c2ccccc2)oc2c(CNCCO)cccc2c1=O` is 117 °C; for `CCOC(=O)c1cc(C)n(-c2cccc(C(C)=O)c2)c1-c1ccccc1` it is 100 to 102 °C. As to `CC(C)n1nc(-c2c(OCC(N)=O)nc(N)nc2-c2ccccc2)ccc1=O`, the melting point lay in the range of 257 to 261 °C. With `COc1ccc(COc2ccc(OC)c(Cc3cnc(N)nc3N)c2)cc1`, the melting point is 220 to 221 °C.

In the case of `COC(=O)c1c(-c2cccc(F)c2)c2cc(OCc3ccccc3)ccc2c(=O)n1CC(C)C`, the melting point is 127 to 128 °C. `CC(=O)N1CC2OC(C3OCCO3)(C1)c1ccccc12` (configuration not stated) came in with a melting point of 122 to 123 °C. With `Oc1c(-c2ccccc2)sc2c(C(O)c3ccccc3)nccc12` (configuration not stated) the figure was 214 to 215 °C; with `CC(Oc1ccc(Oc2ncc(Cl)cc2Cl)cc1)C(=O)N1CCCO1` (configuration not stated), 106 to 108 °C.

Compound `COC(=O)C1Cc2cc3c(cc2C(=O)CS1)OCO3` (configuration not stated) returned a melting point of 165 to 166 °C.

Values taken from a melting point compilation (Tetko et al.; mined from patent text by program, amines drawn as free bases though some values may be those of a salt).
